In patent US4448962A, “Substituted quinoline carboxylic acid derivatives” (Kyorin Seiyaku Kabushiki Kaisha, priority 1978, dated 1984):
In brackets after ≈: the same amount, converted by molar mass. Counter-ions that a name gives are not always drawn. Like-named read-outs stand apart in the source and are kept apart here.

What was measured:
Test in all cases: Antibacterial spectrum (Minimum Inhibitory Concentration)
Format in all cases: cell-based
Sta. aureus ATCC 14775 = conditions: Staphylococcus aureus
From the text: (§1) The antibacterial tests were done according to the method authorized by the Chemotherapeutic Society of Japan.

Ps. aeruginosa IID 1130 = conditions: Pseudomonas aeruginosa
From the text: as §1

[1] = system: Bacillus subtilis PCI 219
From the text: as §1

[2] = system: Escherichia coli NIHJ JC-2
From the text: as §1

Ps. aeruginosa IID 1210 = conditions: Pseudomonas aeruginosa
From the text: as §1

E. coli ATCC 10536 = conditions: Escherichia coli
From the text: as §1

[3] = system: Pseudomonas aeruginosa V-1
From the text: as §1

[4] = system: Klebsiella pneumoniae IFO 3512
From the text: as §1

[5] = system: Staphylococcus aureus 209P; conditions: read-out: Minimum Inhibitory Concentration
From the text: as §1

Pr. vulgaris XK Denken = conditions: Proteus vulgaris, read-out: Minimum Inhibitory Concentration
From the text: as §1

[6] = system: Proteus vulgaris IFO 3167
From the text: as §1

Ps. aeruginosa IFO 12689 = conditions: Pseudomonas aeruginosa
From the text: as §1

Ser. marcescens IID 619 = conditions: Serratia marcescens, IID619; Ser. marcescens IID 619, Gram -; read-out: Minimum Inhibitory Concentration
From the text: as §1

[7] = system: Salmonella enteritidies IID 604; conditions: IID604; Salmonella enteritidies IID 604, Gram -; read-out: Minimum Inhibitory Concentration
From the text: as §1

[8] = system: Serratia marcescens IID 618; conditions: IID618; Serratia marcescens IID 618, Gram -; read-out: Minimum Inhibitory Concentration
From the text: as §1

Shigella sonnei IID 969 = conditions: IID969; Shigella sonnei IID 969, Gram -
From the text: as §1

[9] = ATCC14775, read-out: Minimum Inhibitory Concentration
[10] = Bacillus subtilis, PCI219, read-out: Minimum Inhibitory Concentration
[11] = Escherichia coli, NIHJJC2, read-out: Minimum Inhibitory Concentration
[12] = ATCC10536, read-out: Minimum Inhibitory Concentration
[13] = Pseudomonas aeruginosa, V1, read-out: Minimum Inhibitory Concentration
[14] = Klebsiella pneumoniae, IFO3512, read-out: Minimum Inhibitory Concentration
[15] = Proteus vulgaris, IFO3167, read-out: Minimum Inhibitory Concentration
[16] = IFO12689, read-out: Minimum Inhibitory Concentration
[17] = V1, Pseudomonas aeruginosa V-1, Gram -, read-out: Minimum Inhibitory Concentration
[18] = IFO3167, Proteus vulgaris IFO 3167, Gram -, read-out: Minimum Inhibitory Concentration
[19] = IFO12689, Ps. aeruginosa IFO 12689, Gram -, read-out: Minimum Inhibitory Concentration
[20] = ATCC14775, Sta. aureus ATCC 14775, Gram +, read-out: Minimum Inhibitory Concentration
[21] = PCI219, Bacillus subtilis PCI 219, Gram +, read-out: Minimum Inhibitory Concentration
[22] = NIHJJC2, Escherichia coli NIHJ JC-2, Gram -, read-out: Minimum Inhibitory Concentration
[23] = ATCC10536, E. coli ATCC 10536, Gram -, read-out: Minimum Inhibitory Concentration
[24] = IFO3512, Klebsiella pneumoniae IFO 3512, Gram -, read-out: Minimum Inhibitory Concentration
[25] = Staphylococcus aureus 209P, Gram +

Row | Compound | MIC (Sta. aureus ATCC 14775; [9]) | MIC [1, 10] | MIC [2, 11] | MIC (E. coli ATCC 10536; [12]) | MIC [4, 14] | MIC [6, 15] | MIC (Ps. aeruginosa IFO 12689; [16]) | MIC [3, 17] | MIC (Pr. vulgaris XK Denken; Pr. vulgaris XK Denken, Gram -) | MIC [6, 18] | MIC (Ps. aeruginosa IFO 12689; [19]) | MIC (Sta. aureus ATCC 14775; [20]) | MIC [1, 21] | MIC [2, 22] | MIC (E. coli ATCC 10536; [23]) | MIC [4, 24] | MIC [5, 25] | also measured
1 | C=Cn1cc(C(=O)O)c(=O)c2cc(F)c(N3CCNCC3)cc21.Cl [Example 3, 1-vinyl-6-fluoro-7-(1-piperazinyl)-4-oxo-1,4-dihydro-quinoline-3-carboxylic acid hydrochloride] | 6.25 µg/mL | 0.39 µg/mL | 0.1 µg/mL | 0.1 µg/mL | 0.1 µg/mL | 0.2 µg/mL | 1.56 µg/mL |  |  |  |  |  |  |  |  |  |  | MIC (Ps. aeruginosa IID 1130; IID1130, read-out: Minimum Inhibitory Concentration): 1.56 µg/mL; MIC (Ps. aeruginosa IID 1210; IID1210, read-out: Minimum Inhibitory Concentration): 1.56 µg/mL; MIC [3, 13]: 0.39 µg/mL; MIC ([5]; Staphylococcus aureus, 209P): 3.13 µg/mL; MIC (Pr. vulgaris XK Denken): 0.39 µg/mL
2 | CCn1cc(C(=O)O)c(=O)c2cc(F)c(N3CCN(Cc4ccc(N)cc4)CC3)cc21.Cl [Example 7, 1-ethyl-7-[(4-p-aminobenzyl)-1-piperazinyl]-1,4-dihydro-6-fluoro-4-oxo-quinoline-3-carboxylic acid hydrochloride] | 0.39 µg/mL | 0.2 µg/mL |  | 0.39 µg/mL | 0.1 µg/mL |  |  | 12.5 µg/mL | 0.78 µg/mL | 0.78 µg/mL | 25 µg/mL |  |  |  |  |  |  | MIC (Ps. aeruginosa IID 1130; IID1130, Ps. aeruginosa IID 1130, Gram -, read-out: Minimum Inhibitory Concentration): 25 µg/mL; MIC (Ser. marcescens IID 619): 3.13 µg/mL; MIC (Ps. aeruginosa IID 1210; IID1210, Ps. aeruginosa IID 1210, Gram -, read-out: Minimum Inhibitory Concentration): 25 µg/mL; MIC [7]: 3.13 µg/mL; MIC [8]: 3.13 µg/mL
3 | CCOC(=O)c1cn(CC)c2cc(N3CCNCC3)c(F)cc2c1=O [Example 17, 1-ethyl-6-fluoro-7-(1-piperazinyl)-4-oxo-1,4-dihydroquinoline-3-carboxylicacid ethyl ester] |  |  |  |  |  |  |  | 50 µg/mL (≈ 144 µM) | 25 µg/mL (≈ 72 µM) | 12.5 µg/mL (≈ 36 µM) | > 100 µg/mL | 100 µg/mL (≈ 288 µM) | 50 µg/mL (≈ 144 µM) | 12.5 µg/mL (≈ 36 µM) | 6.25 µg/mL (≈ 18 µM) | 6.25 µg/mL (≈ 18 µM) | 50 µg/mL (≈ 144 µM) | 
4 | Cl.Cn1cc(C(=O)O)c(=O)c2cc(F)c(N3CCNCC3)cc21 [Example 18, 1-methyl-6-fluoro-7-(1-piperazinyl)-4-oxo-1,4-dihydroquinoline-3-carboxylic acid hydrochloride] | 12.5 µg/mL | 0.78 µg/mL | 0.39 µg/mL | 0.39 µg/mL | 0.39 µg/mL | 0.39 µg/mL | 3.13 µg/mL |  |  |  |  |  |  |  |  |  |  | MIC [3, 13]: 1.56 µg/mL; MIC ([5]; Staphylococcus aureus, 209P): 6.25 µg/mL; MIC (Pr. vulgaris XK Denken): 1.56 µg/mL
5 | CCCn1cc(C(=O)O)c(=O)c2cc(F)c(N3CCNCC3)cc21 [Example 19, 1-propyl-6-fluoro-7-(1-piperazinyl)-4-oxo-1,4-dihydroquinoline-3-carboxylic acid hydrochloride] |  |  |  |  |  |  |  | 3.13 µg/mL | 0.39 µg/mL | 0.2 µg/mL | 12.5 µg/mL | 3.13 µg/mL | 0.39 µg/mL | 0.2 µg/mL | 0.39 µg/mL | 0.2 µg/mL | 1.56 µg/mL | 
6 | O=C(O)c1cn(Cc2ccccc2)c2cc(N3CCNCC3)c(F)cc2c1=O [Example 20, 1-benzyl-6-fluoro-1,4-dihydro-4-oxo-7-(1-piperazinyl)-quinoline-3-carboxylic acid] |  |  |  |  |  |  | 6.25 µg/mL (≈ 16.4 µM) | 1.56 µg/mL (≈ 4.09 µM) | 0.78 µg/mL (≈ 2.05 µM) | 0.39 µg/mL (≈ 1.02 µM) |  | 6.25 µg/mL (≈ 16.4 µM) | 0.78 µg/mL (≈ 2.05 µM) | 0.78 µg/mL (≈ 2.05 µM) | 0.39 µg/mL (≈ 1.02 µM) | 0.39 µg/mL (≈ 1.02 µM) | 1.56 µg/mL (≈ 4.09 µM) | 
7 | C=CCn1cc(C(=O)O)c(=O)c2cc(F)c(N3CCNCC3)cc21 [Example 21, hydrochloride] |  |  |  |  |  |  | 6.25 µg/mL | 1.56 µg/mL | 0.39 µg/mL | 0.2 µg/mL |  | 6.25 µg/mL | 0.78 µg/mL | 0.2 µg/mL | 0.2 µg/mL | 0.2 µg/mL | 3.13 µg/mL | 
8 | CCn1cc(C(=O)O)c(=O)c2cc(F)c(N3CCN(N=O)CC3)cc21 [Example 24, 1-ethyl-6-fluoro-7-(4-nitroso-1-piperazinyl)-4-oxo-1,4-dihydroquinoline-3-carboxylic acid] |  |  |  |  |  |  |  | 3.13 µg/mL (≈ 8.99 µM) | 0.39 µg/mL (≈ 1.12 µM) | 0.39 µg/mL (≈ 1.12 µM) | 6.25 µg/mL (≈ 17.9 µM) | 0.78 µg/mL (≈ 2.24 µM) | 0.39 µg/mL (≈ 1.12 µM) | 0.39 µg/mL (≈ 1.12 µM) | 0.39 µg/mL (≈ 1.12 µM) | 0.39 µg/mL (≈ 1.12 µM) | 0.39 µg/mL (≈ 1.12 µM) | 
9 | Cl.O=C(O)c1cn(CCO)c2cc(N3CCNCC3)c(F)cc2c1=O [Example 25, 1-(2-hydroxyethyl)-6-fluoro-7-(1-piperazinyl)-4-oxo-1,4-dihydroquinoline-3-carboxylic acid hydrochloride] | > 25 µg/mL | 1.56 µg/mL | 0.39 µg/mL | 0.2 µg/mL | 0.05 µg/mL | 0.2 µg/mL | > 25 µg/mL |  |  |  |  |  |  |  |  |  |  | MIC [3, 13]: 3.13 µg/mL; MIC ([5]; Staphylococcus aureus, 209P): 1.56 µg/mL; MIC (Pr. vulgaris XK Denken): 3.13 µg/mL
10 | CC(=O)N1CCN(c2cc3c(cc2F)c(=O)c(C(=O)O)cn3CCO)CC1 [Example 26, 1-(2-hydroxyethyl)-6-fluoro-7-(4-acetyl-1-piperazinyl)-4-oxo-1,4-dihydroquinoline-3-carboxylic acid] |  |  |  |  |  |  |  | > 25 µg/mL | > 25 µg/mL | > 25 µg/mL | > 25 µg/mL | > 25 µg/mL | 12.5 µg/mL (≈ 33.1 µM) | > 25 µg/mL | 25 µg/mL (≈ 66.2 µM) | 6.25 µg/mL (≈ 16.6 µM) | > 25 µg/mL | 
11 | CCn1cc(C(=O)O)c(=O)c2cc(F)c(N3CCN(Cc4ccc([N+](=O)[O-])cc4)CC3)cc21 [Example 27, 1-ethyl-1,4-dihydro-6-fluoro-7-[4-(p-nitrobenzyl)-1-piperazinyl]-4-oxo-3-carboxylic acid] |  |  | 6.25 µg/mL (≈ 13.8 µM) | 6.25 µg/mL (≈ 13.8 µM) |  | 6.25 µg/mL (≈ 13.8 µM) |  | > 50 µg/mL | 12.5 µg/mL (≈ 27.5 µM) |  | > 50 µg/mL | 3.13 µg/mL (≈ 6.89 µM) | 0.1 µg/mL (≈ 0.22 µM) |  |  | 0.1 µg/mL (≈ 0.22 µM) | 1.56 µg/mL (≈ 3.43 µM) | MIC (Shigella sonnei IID 969): 6.25 µg/mL (≈ 13.8 µM)
12 | CCn1cc(C(=O)O)c(=O)c2cc(F)c(N3CCN(C(C)=O)CC3)cc21 [Example 29, 1-ethyl-6-fluoro-1,4-dihydro-4-oxo-7-(4-acetyl-1-piperazinyl)quinoline-3-carboxylic acid] |  |  |  |  |  |  |  | 25 µg/mL (≈ 69.2 µM) | 1.56 µg/mL (≈ 4.32 µM) | 0.39 µg/mL (≈ 1.08 µM) | 25 µg/mL (≈ 69.2 µM) | 1.56 µg/mL (≈ 4.32 µM) | 0.2 µg/mL (≈ 0.553 µM) | 1.56 µg/mL (≈ 4.32 µM) | 1.56 µg/mL (≈ 4.32 µM) | < 0.1 µg/mL | 0.78 µg/mL (≈ 2.16 µM) | 
